Measurements taken from patent US20230024283A1, “HERBICIDAL COMPOUNDS” (SYNGENTA CROP PROTECTION AG, priority 2020, published 2023).

Tested on: Setaria faberi (SETFA)
Assay: Post-emergence herbicidal glasshouse test
Type: in vivo
Settings: post-emergence spray, 1000 g/ha, evaluated after 13 days, five-point scale
Protocol: (§1) Seeds of a variety of test species are sown in standard soil in pots (Ipomoea hederacea (IPOHE), Abutilon theophrasti (ABUTH), Amaranthus retoflexus (AMARE), Echinochloa crus-galli (ECHCG), Setaria faberi (SETFA)). After 8 days cultivation under controlled conditions in a glasshouse (at 24/16° C., day/night; 14 hours light; 65% humidity), the plants are sprayed with an aqueous spray solution derived from the formulation of the technical active ingredient in acetone / water (50:50) solution containing 0.5% Tween 20 (polyoxyethelyene sorbitan monolaurate, CAS RN 9005-64-5). Compounds are applied at 1000 g/ha unless otherwise stated. The test plants are then grown in a glasshouse under controlled conditions in a glasshouse (at 24/16° C., day/night; 14 hours light; 65% humidity) and watered twice daily. After 13 days the test is evaluated for the percentage damage caused to the plant. The biological activities are shown in the following table on a five-point scale (5=81-100%; 4=61-80%; 3=41-60%; 2=21-40%; 1=0-20%).

| Compound | percentage damage caused to the plant, SETFA |
| --- | --- |
| COc1cc(-c2cc(C#N)cc(Br)c2O)cc(C(F)(F)F)n1 [Compound 1.009] | 2 (2=21-40%) |
| N#Cc1cc(F)cc(-c2cc(C#N)cc(Br)c2O)c1 [Compound 1.032] | 4 (4=61-80%) |
| N#Cc1cc(Br)c(O)c(-c2ccc(F)c(F)c2)c1 [Compound 1.130] | 1 (1=0-20%) |
| N#Cc1cc(Cl)c(O)c(-c2cccc(F)c2)c1 [Compound 1.004] | 3 (3=41-60%) |
| N#Cc1cc(Br)c(O)c(-c2cc(F)cc(C(F)(F)F)c2)c1 [Compound 1.027] | 4 (4=61-80%) |
| N#Cc1cc(OC(F)(F)F)c(O)c(-c2cccc(F)c2)c1 [Compound 1.002] | 2 (2=21-40%) |
| N#Cc1cccc(-c2cc(C#N)cc(Br)c2O)c1 [Compound 1.053] | 1 (1=0-20%) |
| N#Cc1cc(-c2cccc(F)c2)c(O)c([N+](=O)[O-])c1 [Compound 1.191] | 2 (2=21-40%) |
| N#Cc1cc(Br)c(O)c(-c2cnc3c(c2)OC(F)(F)O3)c1 [Compound 1.036] | 4 (4=61-80%) |
| N#Cc1cc(Cl)c(O)c(-n2cc(C(F)(F)F)cn2)c1 [Compound 1.001, 3-chloro-4-hydroxy-5-[4-(trifluoromethyl)pyrazol-1-yl]benzonitrile] | 4 (4=61-80%) |
| N#Cc1cc(-c2cccc(F)c2)c(O)c(C(F)(F)F)c1 [Compound 1.005] | 1 (1=0-20%) |
| N#Cc1cc(-c2ccc(F)c(Cl)c2)c(O)c(C(F)(F)F)c1 [Compound 1.160] | 1 (1=0-20%) |
| N#Cc1cc(-n2cc(F)cn2)c(O)c(C(F)(F)F)c1 [Compound 1.186] | 1 (1=0-20%) |
| N#Cc1cc(-c2cc(F)cc(F)c2)c(O)c(C(F)(F)F)c1 [Compound 1.183] | 2 (2=21-40%) |

Tested on: Amaranthus retoflexus (AMARE)
Assay: Post-emergence herbicidal glasshouse test
Type: in vivo
Settings: post-emergence spray, 1000 g/ha, evaluated after 13 days, five-point scale
Protocol: as §1

| Compound | percentage damage caused to the plant, AMARE |
| --- | --- |
| COc1cc(-c2cc(C#N)cc(Br)c2O)cc(C(F)(F)F)n1 [Compound 1.009] | 4 (4=61-80%) |
| N#Cc1cc(F)cc(-c2cc(C#N)cc(Br)c2O)c1 [Compound 1.032] | 5 (5=81-100%) |
| N#Cc1cc(Br)c(O)c(-c2ccc(F)c(F)c2)c1 [Compound 1.130] | 5 (5=81-100%) |
| N#Cc1cc(Cl)c(O)c(-c2cccc(F)c2)c1 [Compound 1.004] | 5 (5=81-100%) |
| N#Cc1cc(Br)c(O)c(-c2cc(F)cc(C(F)(F)F)c2)c1 [Compound 1.027] | 5 (5=81-100%) |
| N#Cc1cc(OC(F)(F)F)c(O)c(-c2cccc(F)c2)c1 [Compound 1.002] | 5 (5=81-100%) |
| N#Cc1cccc(-c2cc(C#N)cc(Br)c2O)c1 [Compound 1.053] | 5 (5=81-100%) |
| N#Cc1cc(-c2cccc(F)c2)c(O)c([N+](=O)[O-])c1 [Compound 1.191] | 5 (5=81-100%) |
| N#Cc1cc(Br)c(O)c(-c2cnc3c(c2)OC(F)(F)O3)c1 [Compound 1.036] | 5 (5=81-100%) |
| N#Cc1cc(Cl)c(O)c(-n2cc(C(F)(F)F)cn2)c1 [Compound 1.001, 3-chloro-4-hydroxy-5-[4-(trifluoromethyl)pyrazol-1-yl]benzonitrile] | 4 (4=61-80%) |
| N#Cc1cc(-c2cccc(F)c2)c(O)c(C(F)(F)F)c1 [Compound 1.005] | 4 (4=61-80%) |
| N#Cc1cc(-c2ccc(F)c(Cl)c2)c(O)c(C(F)(F)F)c1 [Compound 1.160] | 5 (5=81-100%) |
| N#Cc1cc(-n2cc(F)cn2)c(O)c(C(F)(F)F)c1 [Compound 1.186] | 2 (2=21-40%) |
| N#Cc1cc(-c2cc(F)cc(F)c2)c(O)c(C(F)(F)F)c1 [Compound 1.183] | 5 (5=81-100%) |

Tested on: Echinochloa crus-galli (ECHCG)
Assay: Post-emergence herbicidal glasshouse test
Type: in vivo
Settings: post-emergence spray, 1000 g/ha, evaluated after 13 days, five-point scale
Protocol: as §1

| Compound | percentage damage caused to the plant, ECHCG |
| --- | --- |
| N#Cc1cc(Br)c(O)c(-c2ccc(F)c(F)c2)c1 [Compound 1.130] | 1 (1=0-20%) |
| N#Cc1cc(Cl)c(O)c(-c2cccc(F)c2)c1 [Compound 1.004] | 3 (3=41-60%) |
| N#Cc1cc(OC(F)(F)F)c(O)c(-c2cccc(F)c2)c1 [Compound 1.002] | 3 (3=41-60%) |
| N#Cc1cccc(-c2cc(C#N)cc(Br)c2O)c1 [Compound 1.053] | 1 (1=0-20%) |
| N#Cc1cc(-c2cccc(F)c2)c(O)c([N+](=O)[O-])c1 [Compound 1.191] | 2 (2=21-40%) |
| N#Cc1cc(Br)c(O)c(-c2cnc3c(c2)OC(F)(F)O3)c1 [Compound 1.036] | 3 (3=41-60%) |
| N#Cc1cc(-c2cccc(F)c2)c(O)c(C(F)(F)F)c1 [Compound 1.005] | 4 (4=61-80%) |
| N#Cc1cc(-c2ccc(F)c(Cl)c2)c(O)c(C(F)(F)F)c1 [Compound 1.160] | 1 (1=0-20%) |
| N#Cc1cc(-n2cc(F)cn2)c(O)c(C(F)(F)F)c1 [Compound 1.186] | 1 (1=0-20%) |
| N#Cc1cc(-c2cc(F)cc(F)c2)c(O)c(C(F)(F)F)c1 [Compound 1.183] | 2 (2=21-40%) |

Tested on: Ipomoea hederacea (IPOHE)
Assay: Post-emergence herbicidal glasshouse test
Type: in vivo
Settings: post-emergence spray, 1000 g/ha, evaluated after 13 days, five-point scale
Protocol: as §1

| Compound | percentage damage caused to the plant, IPOHE |
| --- | --- |
| COc1cc(-c2cc(C#N)cc(Br)c2O)cc(C(F)(F)F)n1 [Compound 1.009] | 2 (2=21-40%) |
| N#Cc1cc(F)cc(-c2cc(C#N)cc(Br)c2O)c1 [Compound 1.032] | 3 (3=41-60%) |
| N#Cc1cc(Br)c(O)c(-c2ccc(F)c(F)c2)c1 [Compound 1.130] | 2 (2=21-40%) |
| N#Cc1cc(Cl)c(O)c(-c2cccc(F)c2)c1 [Compound 1.004] | 1 (1=0-20%) |
| N#Cc1cc(Br)c(O)c(-c2cc(F)cc(C(F)(F)F)c2)c1 [Compound 1.027] | 3 (3=41-60%) |
| N#Cc1cc(OC(F)(F)F)c(O)c(-c2cccc(F)c2)c1 [Compound 1.002] | 5 (5=81-100%) |
| N#Cc1cccc(-c2cc(C#N)cc(Br)c2O)c1 [Compound 1.053] | 3 (3=41-60%) |
| N#Cc1cc(-c2cccc(F)c2)c(O)c([N+](=O)[O-])c1 [Compound 1.191] | 3 (3=41-60%) |
| N#Cc1cc(Br)c(O)c(-c2cnc3c(c2)OC(F)(F)O3)c1 [Compound 1.036] | 3 (3=41-60%) |
| N#Cc1cc(Cl)c(O)c(-n2cc(C(F)(F)F)cn2)c1 [Compound 1.001, 3-chloro-4-hydroxy-5-[4-(trifluoromethyl)pyrazol-1-yl]benzonitrile] | 1 (1=0-20%) |
| N#Cc1cc(-c2cccc(F)c2)c(O)c(C(F)(F)F)c1 [Compound 1.005] | 5 (5=81-100%) |
| N#Cc1cc(-c2ccc(F)c(Cl)c2)c(O)c(C(F)(F)F)c1 [Compound 1.160] | 2 (2=21-40%) |
| N#Cc1cc(-n2cc(F)cn2)c(O)c(C(F)(F)F)c1 [Compound 1.186] | 4 (4=61-80%) |
| N#Cc1cc(-c2cc(F)cc(F)c2)c(O)c(C(F)(F)F)c1 [Compound 1.183] | 2 (2=21-40%) |

Tested on: Abutilon theophrasti (ABUTH)
Assay: Post-emergence herbicidal glasshouse test
Type: in vivo
Settings: post-emergence spray, 1000 g/ha, evaluated after 13 days, five-point scale
Protocol: as §1

| Compound | percentage damage caused to the plant, ABUTH |
| --- | --- |
| COc1cc(-c2cc(C#N)cc(Br)c2O)cc(C(F)(F)F)n1 [Compound 1.009] | 2 (2=21-40%) |
| N#Cc1cc(F)cc(-c2cc(C#N)cc(Br)c2O)c1 [Compound 1.032] | 4 (4=61-80%) |
| N#Cc1cc(Br)c(O)c(-c2ccc(F)c(F)c2)c1 [Compound 1.130] | 5 (5=81-100%) |
| N#Cc1cc(Cl)c(O)c(-c2cccc(F)c2)c1 [Compound 1.004] | 5 (5=81-100%) |
| N#Cc1cc(Br)c(O)c(-c2cc(F)cc(C(F)(F)F)c2)c1 [Compound 1.027] | 4 (4=61-80%) |
| N#Cc1cc(OC(F)(F)F)c(O)c(-c2cccc(F)c2)c1 [Compound 1.002] | 4 (4=61-80%) |
| N#Cc1cccc(-c2cc(C#N)cc(Br)c2O)c1 [Compound 1.053] | 2 (2=21-40%) |
| N#Cc1cc(-c2cccc(F)c2)c(O)c([N+](=O)[O-])c1 [Compound 1.191] | 4 (4=61-80%) |
| N#Cc1cc(Br)c(O)c(-c2cnc3c(c2)OC(F)(F)O3)c1 [Compound 1.036] | 2 (2=21-40%) |
| N#Cc1cc(Cl)c(O)c(-n2cc(C(F)(F)F)cn2)c1 [Compound 1.001, 3-chloro-4-hydroxy-5-[4-(trifluoromethyl)pyrazol-1-yl]benzonitrile] | 5 (5=81-100%) |
| N#Cc1cc(-c2cccc(F)c2)c(O)c(C(F)(F)F)c1 [Compound 1.005] | 5 (5=81-100%) |
| N#Cc1cc(-c2ccc(F)c(Cl)c2)c(O)c(C(F)(F)F)c1 [Compound 1.160] | 1 (1=0-20%) |
| N#Cc1cc(-n2cc(F)cn2)c(O)c(C(F)(F)F)c1 [Compound 1.186] | 5 (5=81-100%) |
| N#Cc1cc(-c2cc(F)cc(F)c2)c(O)c(C(F)(F)F)c1 [Compound 1.183] | 4 (4=61-80%) |
